Test results published in patent US9718785B2, “1,3-Disubstituted cyclopentane derivatives” (MERCK PATENT GMBH, priority 2013, dated 2017).

Target: T1, human recombinant full-length fatty acid synthase (FASN) (Homo sapiens, UniProt P49327)
T1 construct: 40 nM human recombinant full-length fatty acid synthase (produced in-house in SF9 cells); made in house; host or cells: SF9 insect cells
Test: Biochemical activity testing of human fatty acid synthase FASN (NADPH fluorescence intensity enzyme assay)
Settings: human recombinant FASN, enzyme assay
Description: Biochemical Activity Testing of Human Fatty Acid Synthase FASN
Fatty acid synthase FASN is a multifunctional enzyme with seven catalytic activities thereby synthesising long chain fatty acids especially palmitoyl-CoA in the presence of co-factor NADPH starting from the substrates acetyl-CoA and malonyl-CoA. The reductive synthesis is realized by the oxidation of NADPH to NADP. Since NADPH has a high fluorescence intensity quantum yield compared to NADP with excitation at 340 nm and emission at 460 nm, the reaction can be monitored via the decrease in fluorescence intensity. The biochemical FASN activity testing was performed as 384 well two-time-point kinetic fluorescence intensity assay format in Greiner low volume medium binding 384-well black microtiter plates in a total assay volume of 8 μl and was used for high throughput screen. In each well 3 μl 40 nM human recombinant full-length fatty acid synthase (produced in-house in SF9 cells) were dispensed in the following assay buffer: 50 mM potassium phosphate buffer pH 7.0, 0.005% (w/v) BSA, 2 mM Glutathione, 0.02% Tween-20. Then 2 μl of 200 μM NADPH in assay buffer were added, followed by the addition of the test compounds in 10 dilution concentrations starting with 30 μM (final concentration) to get a final DMSO content of 1% (v/v). The mixture was incubated for at least 15 min at room temperature. After the pre-incubation the enzymatic reaction was started by the addition of 2 μl substrate solution (80 μM acetyl-CoA, 240 μM malonyl-CoA). A first fluorescence intensity measurement (time point one) was performed with an Envision multimode reader (Perkin Elmer LAS Germany GmbH) at excitation wavelength 340 nm (lamp mode) and emission wavelength 460 nm. The reaction was incubated for 30 minutes at room temperature. After this the fluorescence intensity was measured again in the Envision using the same parameters as described above (second time point measurement). The data were analysed by subtracting the first time point measurement value from the second time point measurement value (after the enzymatic reaction). The differences of the emission signals were determined. These reflect directly the conversion rate of NADPH. The full value used was the inhibitor-free reaction. A pharmacological zero value was used like GSK837149A (Sigma-Aldrich) in a final concentration of 5-10 μM. The inhibitory values (IC50) were determined using either the program Symyx Assay Explorer® or Condosseo® from GeneData.

T1 sequence (P49327 whole entry): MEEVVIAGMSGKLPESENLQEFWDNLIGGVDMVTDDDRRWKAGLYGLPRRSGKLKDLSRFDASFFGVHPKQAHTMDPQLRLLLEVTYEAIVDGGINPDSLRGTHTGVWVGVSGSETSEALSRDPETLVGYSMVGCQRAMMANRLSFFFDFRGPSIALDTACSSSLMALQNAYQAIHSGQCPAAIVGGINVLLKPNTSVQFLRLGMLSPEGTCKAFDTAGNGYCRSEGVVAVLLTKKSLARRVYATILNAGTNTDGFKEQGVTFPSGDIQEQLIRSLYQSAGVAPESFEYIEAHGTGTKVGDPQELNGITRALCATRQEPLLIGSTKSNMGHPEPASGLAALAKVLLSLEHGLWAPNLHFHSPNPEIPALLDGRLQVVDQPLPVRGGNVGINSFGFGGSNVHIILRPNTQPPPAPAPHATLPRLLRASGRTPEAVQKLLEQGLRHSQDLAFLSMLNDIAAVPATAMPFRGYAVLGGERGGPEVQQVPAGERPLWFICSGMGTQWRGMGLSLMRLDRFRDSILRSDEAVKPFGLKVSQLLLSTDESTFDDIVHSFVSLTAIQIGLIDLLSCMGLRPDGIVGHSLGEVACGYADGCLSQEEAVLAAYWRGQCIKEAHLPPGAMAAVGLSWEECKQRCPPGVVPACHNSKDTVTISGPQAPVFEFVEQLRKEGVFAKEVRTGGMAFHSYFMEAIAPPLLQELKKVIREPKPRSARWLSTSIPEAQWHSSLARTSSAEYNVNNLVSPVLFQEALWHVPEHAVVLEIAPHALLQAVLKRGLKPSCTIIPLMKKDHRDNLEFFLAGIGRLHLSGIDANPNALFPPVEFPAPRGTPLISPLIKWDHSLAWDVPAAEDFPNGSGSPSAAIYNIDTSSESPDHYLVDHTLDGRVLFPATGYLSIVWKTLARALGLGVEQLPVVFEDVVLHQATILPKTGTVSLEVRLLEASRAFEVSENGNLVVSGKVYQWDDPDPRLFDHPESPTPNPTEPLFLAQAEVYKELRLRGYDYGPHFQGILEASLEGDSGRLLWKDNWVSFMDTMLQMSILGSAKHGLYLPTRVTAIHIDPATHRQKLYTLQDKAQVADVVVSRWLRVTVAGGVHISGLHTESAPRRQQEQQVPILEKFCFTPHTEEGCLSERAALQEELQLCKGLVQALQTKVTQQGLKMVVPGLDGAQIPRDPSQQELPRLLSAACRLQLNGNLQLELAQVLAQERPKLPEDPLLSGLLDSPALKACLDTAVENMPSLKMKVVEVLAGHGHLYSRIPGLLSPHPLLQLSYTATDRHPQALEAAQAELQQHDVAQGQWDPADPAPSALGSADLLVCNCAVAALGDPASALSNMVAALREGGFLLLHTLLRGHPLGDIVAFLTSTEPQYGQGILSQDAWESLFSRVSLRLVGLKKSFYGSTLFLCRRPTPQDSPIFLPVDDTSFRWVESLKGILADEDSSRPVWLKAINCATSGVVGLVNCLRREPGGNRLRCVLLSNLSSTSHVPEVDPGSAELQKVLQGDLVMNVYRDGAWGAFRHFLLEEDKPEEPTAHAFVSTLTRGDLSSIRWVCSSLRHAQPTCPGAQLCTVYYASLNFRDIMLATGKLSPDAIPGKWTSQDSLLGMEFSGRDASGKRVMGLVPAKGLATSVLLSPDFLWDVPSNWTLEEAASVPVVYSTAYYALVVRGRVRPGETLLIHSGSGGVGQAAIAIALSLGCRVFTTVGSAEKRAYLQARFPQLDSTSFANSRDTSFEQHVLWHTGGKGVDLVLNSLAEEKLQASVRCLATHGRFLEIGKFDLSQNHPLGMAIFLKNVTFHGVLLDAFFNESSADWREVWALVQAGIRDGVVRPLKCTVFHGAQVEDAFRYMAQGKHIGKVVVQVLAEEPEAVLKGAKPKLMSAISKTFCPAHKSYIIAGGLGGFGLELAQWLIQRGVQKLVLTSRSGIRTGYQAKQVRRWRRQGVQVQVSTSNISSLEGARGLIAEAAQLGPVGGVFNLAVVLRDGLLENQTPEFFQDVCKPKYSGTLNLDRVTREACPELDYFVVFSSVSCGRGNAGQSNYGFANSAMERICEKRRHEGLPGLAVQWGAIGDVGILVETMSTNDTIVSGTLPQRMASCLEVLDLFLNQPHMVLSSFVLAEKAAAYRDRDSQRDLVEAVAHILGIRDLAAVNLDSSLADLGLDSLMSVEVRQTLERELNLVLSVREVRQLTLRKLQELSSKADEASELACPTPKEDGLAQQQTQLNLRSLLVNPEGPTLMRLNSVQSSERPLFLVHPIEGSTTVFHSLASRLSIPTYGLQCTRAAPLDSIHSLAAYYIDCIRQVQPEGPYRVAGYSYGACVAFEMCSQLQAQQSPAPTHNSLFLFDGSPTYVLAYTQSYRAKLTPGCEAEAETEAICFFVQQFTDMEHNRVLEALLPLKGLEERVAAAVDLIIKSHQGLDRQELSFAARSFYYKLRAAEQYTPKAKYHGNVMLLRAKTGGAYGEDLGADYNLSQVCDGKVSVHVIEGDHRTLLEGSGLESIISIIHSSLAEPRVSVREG

| IC50 [nM] | SMILES |
| --- | --- |
| < 300 | CCC(=O)N[C@H]1CC[C@@H](n2nncc2-c2ccc(-c3ccc(Cl)cc3F)cc2)C1 [Compound A81, N-{(1S,3R)-3-[5-(4′-Chloro-2′-fluoro-biphenyl-4-yl)-[1,2,3]triazol-1-yl]-cyclopentyl}-propionamide] |
| < 300 | CCC(=O)N[C@H]1CC[C@@H](n2nncc2-c2ccc(-c3ccc(OC)cc3C)cc2)C1 [Compound A82, N-{(1S,3R)-3-[5-(4′-Methoxy-2′-methyl-biphenyl-4-yl)-[1,2,3]triazol-1-yl]-cyclopentyl}-propionamide] |
| < 300 | CCC(=O)N[C@H]1CC[C@@H](n2nncc2-c2ccc(-c3ccc(F)c(Cl)c3)cc2)C1 [Compound A85, N-{(1S,3R)-3-[5-(3′-Chloro-4′-fluoro-biphenyl-4-yl)-[1,2,3]triazol-1-yl]-cyclopentyl}-propionamide] |
| < 300 | CCC(=O)N[C@H]1CC[C@@H](n2nncc2-c2ccc(-c3ccc(OC)cc3OC)cc2)C1 [Compound A86, N-{(1S,3R)-3-[5-(2′,4′-Dimethoxy-biphenyl-4-yl)-[1,2,3]triazol-1-yl]-cyclopentyl}-propionamide] |
| < 300 | CCC(=O)N[C@H]1CC[C@@H](n2nncc2-c2ccc(-c3ccc4[nH]c(=O)[nH]c4c3)cc2)C1 [Compound A87, N-((1S,3R)-3-{5-[4-(2-Oxo-2,3-dihydro-1H-benzimidazol-5-yl)-phenyl]-[1,2,3]triazol-1-yl}-cyclopentyl)-propionamide] |
| < 300 | CCC(=O)N[C@H]1CC[C@@H](n2nncc2-c2ccc(-c3ccc(OC)c(OC)c3)cc2)C1 [Compound A88, N-{(1S,3R)-3-[5-(3′,4′-Dimethoxy-biphenyl-4-yl)-[1,2,3]triazol-1-yl]-cyclopentyl}-propionamide] |
| < 300 | CCC(=O)N[C@H]1CC[C@@H](n2nncc2-c2ccc(-c3ccc(C)cc3C)cc2)C1 [Compound A89, N-{(1S,3R)-3-[5-(2′,4′-Dimethyl-biphenyl-4-yl)-[1,2,3]triazol-1-yl]-cyclopentyl}-propionamide] |
| 300 to 3000 | O=C(N[C@H]1CC[C@@H](n2nncc2-c2ccc(-c3nc4ccccc4o3)cc2)C1)[C@@H](O)CO [Compound A93, (S)—N-{(1S,3R)-3-[5-(4-Benzoxazol-2-yl-phenyl)-[1,2,3]triazol-1-yl]-cyclopentyl}-2,3-dihydroxy-propionamide] |
| < 300 | CCC(=O)N[C@H]1CC[C@@H](n2cnnc2-c2ccc(-c3ccc(OC)cc3C)cc2)C1 [Compound A94, N-{(1S,3R)-3-[3-(4′-Methoxy-2′-methyl-biphenyl-4-yl)-[1,2,4]triazol-4-yl]-cyclopentyl}-propionamide] |
| < 300 | CCC(=O)N[C@H]1CC[C@@H](n2cnnc2-c2ccc(-c3ccc(-n4cccn4)cc3)cc2)C1 [Compound A96, N-{(1S,3R)-3-[3-(4′-Pyrazol-1-yl-biphenyl-4-yl)[1,2,4]triazol-4-yl]-cyclopentyl}-propionamide] |
| 300 to 3000 | CCNC(=O)[C@H]1CC[C@@H](n2nncc2-c2ccc(-c3ccc(C(=O)O)cc3)cc2)C1 [Compound A100, 4′-[3-((1R,3S)-3-Ethylcarbamoyl-cyclopentyl)-3H-[1,2,3]triazol-4-yl]-biphenyl-4-carboxylic acid] |
| < 300 | CCNC(=O)[C@H]1CC[C@@H](n2nncc2-c2ccc(-c3ccc(OCC4CC4)cc3)cc2)C1 [Compound A103, (1S,3R)-3-[5-(4′-Cyclopropylmethoxy-biphenyl-4-yl)-[1,2,3]triazol-1-yl]-cyclopentanecarboxylic acid ethylamide] |
| < 300 | CCNC(=O)[C@H]1CC[C@@H](n2nncc2-c2ccc(-c3ccc(Cl)c(F)c3)cc2)C1 [Compound A104, (1S,3R)-3-[5-(4′-Chloro-3′-fluoro-biphenyl-4-yl)-[1,2,3]triazol-1-yl]-cyclopentanecarboxylic acid ethylamide] |
| < 300 | CCNC(=O)[C@H]1CC[C@@H](n2nncc2-c2ccc(-c3ccc(C#N)c(F)c3)cc2)C1 [Compound A105, (1S,3R)-3-[5-(4′-Cyano-3′-fluoro-biphenyl-4-yl)-[1,2,3]triazol-1-yl]-cyclopentanecarboxylic acid ethylamide] |

More lines, now with the values behind:

| SMILES | IC50 [nM] |
| --- | --- |
| CCC(=O)N[C@H]1CC[C@@H](n2nncc2-c2ccc(-c3ccc(C#N)c(F)c3)cc2)C1 [Compound A80, N-{(1S,3R)-3-[5-(4′-Cyano-3′-fluoro-biphenyl-4-yl)-[1,2,3]triazol-1-yl]-cyclopentyl}-propionamide] | < 300 |
| CCC(=O)N[C@H]1CC[C@@H](n2nncc2-c2ccc(-c3ccc(C)c(F)c3)cc2)C1 [Compound A83, N-{(1S,3R)-3-[5-(3′-Fluoro-4′-methyl-biphenyl-4-yl)-[1,2,3]triazol-1-yl]-cyclopentyl}-propionamide] | < 300 |
| CCC(=O)N[C@H]1CC[C@@H](n2nncc2-c2ccc(-c3ccc(C)cc3)cc2)C1 [Compound A84, N-{(1S,3R)-3-[5-(4′-Methyl-biphenyl-4-yl)-[1,2,3]triazol-1-yl]-cyclopentyl}-propionamide] | < 300 |
| CC1(C)OC[C@@H](C(=O)N[C@H]2CC[C@@H](n3nncc3-c3ccc(-c4nc5ccccc5o4)cc3)C2)O1 [Compound A90, (S)-2,2-Dimethyl-[1,3]dioxolane-4-carboxylic acid {(1S,3R)-3-[5-(4-benzoxazol-2-yl-phenyl)-[1,2,3]triazol-1-yl]-cyclopentyl}-amide] | < 300 |
| CCC(=O)N[C@H]1CC[C@@H](n2nncc2-c2ccc(-c3ccc4c(c3)NC(=O)C4)cc2)C1 [Compound A91, N-((1S,3R)-3-{5-[4-(2-Oxo-2,3-dihydro-1H-indol-6-yl)-phenyl]-[1,2,3]triazol-1-yl}-cyclopentyl)-propionamide] | < 300 |
| CCC(=O)N[C@H]1CC[C@@H](n2nncc2-c2ccc(-c3ccc(OCC4CC4)cc3)cc2)C1 [Compound A92, N-{(1S,3R)-3-[5-(4′-Cyclopropylmethoxy-biphenyl-4-yl)-[1,2,3]triazol-1-yl]-cyclopentyl}-propionamide] | < 300 |
| CCC(=O)N[C@H]1CC[C@@H](n2cnnc2-c2ccc(-c3ccc(Cl)c(F)c3)cc2)C1 [Compound A95, N-{(1S,3R)-3-[3-(4′-Chloro-3′-fluoro-biphenyl-4-yl)[1,2,4]triazol-4-yl]-cyclopentyl}-propionamide] | < 300 |
| CCC(=O)N[C@H]1CC[C@@H](n2cnnc2-c2ccc(-c3ccc4c(ccn4C)c3)cc2)C1 [Compound A97, N-((1S,3R)-3-{3-[4-(1-Methyl-1H-indol-5-yl)-phenyl]-[1,2,4]triazol-4-yl}-cyclopentyl)-propionamide] | < 300 |
| CCC(=O)N[C@H]1CC[C@@H](n2cnnc2-c2ccc(-c3cc4cn[nH]c4cc3C)cc2)C1 [Compound A98, N-((1S,3R)-3-{3-[4-(6-Methyl-1H-indazol-5-yl)-phenyl]-[1,2,4]triazol-4-yl}-cyclopentyl)-propionamide] | < 300 |
| CCNC(=O)[C@H]1CC[C@@H](n2nncc2-c2ccc(-c3ccc(C(N)=O)cc3)cc2)C1 [Compound A99, 4′-[3-((1R,3S)-3-Ethylcarbamoyl-cyclopentyl)-3H-[1,2,3]triazol-4-yl]-biphenyl-4-carboxylic acid amide] | 300 to 3000 |
| CCNC(=O)[C@H]1CC[C@@H](n2nncc2-c2ccc(-c3ccc(OC)c(OC)c3)cc2)C1 [Compound A102, (1S,3R)-3-[5-(3′,4′-Dimethoxy-biphenyl-4-yl)-[1,2,3]triazol-1-yl]-cyclopentanecarboxylic acid ethylamide] | < 300 |
